This is an account of results in US20210038668A1, “TRADITIONAL CHINESE MEDICINE COMPOSITION FOR PREVENTING AND/OR TREATING ISCHEMIC REPERFUSION INJURY” (TASLY PHARMACEUTICAL GROUP CO., LTD., priority 2018, published 2021).

One test concerns Bcl-2. Nature of the test: Western blotting of Bcl-2, endothelial cells after hypoxia/reoxygenation. The format is cell-based. As to conditions: rat brain endothelial cells, hypoxia 4.5 h/reoxygenation 3 h; tPA 20 mcg/ml alone (model group); T541 400 mcg/ml + tPA 20 mcg/ml. From the text: (§1) Establishment of rat brain endothelial cell H/R model: rat brain endothelial cells were purchased from ATCC, and then subcultured to 5-6 generations in normal conditions for further experiment. […]
For orientation: Immunoblotting shows a protein as a band on a membrane.

For another test, the system named is Bax. Nature of the test: Western blotting of Bax, endothelial cells after hypoxia/reoxygenation. It is filed as cell-based. As to conditions: rat brain endothelial cells, hypoxia 4.5 h/reoxygenation 3 h; tPA 20 mcg/ml alone (model group); T541 400 mcg/ml + tPA 20 mcg/ml.
Excerpt: as §1

The subject of test [1] is cerebral cortex microvessels. Nature of the test: Opening number of cerebral cortex microvessels by SEM. The settings on record: 24 h after administration; tPA 10 mg/kg alone; T541 20 mg/kg + tPA 10 mg/kg. The format is in vivo, C57BL/6 mice. As to the method:
Scanning electron microscope (SEM): after reperfused for 24 hours, anesthetized mice were perfused 3% glutaraldehyde for 40 minutes via ventriculus sinister at a rate of 3 ml/min; the brain was taken, and the right cortical penumbra was cut off and immobilized in glutaraldehyde for 2 hours. After washed by a PBS phosphate buffer, mice were immobilized in 1% osmium tetroxide for 2 hours; a proper section was taken and fixed on a metal support. Tissue blocks were plated gold, observed and shoot by an SEM (JSM-5600LV, JEOL, Tokyo, Japan).
5 500-fold visual fields were randomly selected for each mouse under SEM to count the opening number of cerebral cortex microvessels in right hemisphere penumbra. N=3. (See lines 3 and 4 of FIG. 7)

For another test, the system named is cerebral infarction. Nature of the test: TTC infarct size, mice after thrombolysis. The format is in vivo, C57BL/6 mice. The settings on record: 24 h after administration, tPA 10 mg/kg alone, T541 20 mg/kg + tPA 10 mg/kg. As to the method:
After reperfused for 24 hours, mice were perfused via heart by a PBS buffer precooled at 4° C. and separated brain via craniotomy; the brain was cut from front to back into 5 slices in a brain stereotaxic apparatus; bleeding condition was rapidly shoot in cold condition; then slices were put into 2% triphenyltetrazolium chloride, TTC for incubation for 15 minutes at […]; TTC staining was conducted. Non-infarct region was stained red and infarct region was not stained and still white. Brain TTC staining images were shoot and IamgeJ (Bethesda, Md., USA) was used to calculate a percentage of TTC staining infarct size in the total area of brain, and evaluate the degree of cerebral infarction.

For the next test, the system named is mitochondrial complex I. The experiment in a line: Mitochondrial complex I activity in brain tissue. The format is in vivo, C57BL/6 mice. As to conditions: brain tissue 24 hours after administration; tPA 10 mg/kg alone or + T541 20 mg/kg or ingredients at Table 7 doses. The source says: To compare the therapeutical effect on reperfusion injury caused by tPA thrombolysis between the traditional Chinese medicinal composition of the present invention and each ingredient (total saponins of Astragalus, the experiment was divided into the following group (tPA is combined with T541, individual ingredient thereof and compatibility of any two ingredients) specifically as follows: tPA+total saponins of Astragalus (tPA+HQ), tPA+ salvianolic acids (tPA+DS), tPA+Panax notoginseng saponins (tPA+SQ), tPA+ total saponins of Astragalus+salvianolic acids (tPA+HQ+DS), tPA+ total saponins of Astragalus+Panax notoginseng saponins (tPA+HQ+SQ), tPA+ salvianolic acids+Panax notoginseng saponins (tPA+DS+SQ) and tPA+T541. Normal saline served as an isovolumetric control. The usage number in each group is 6.
ELISA adsorption kit was used to measure the change on the content of MDA, 8-hydroxyl-2′-deoxyguanosine (8-OHdG), adenosine triphosphate (ATP), adenosine diphosphate (ADP) and adenosine monophosphate (AMP) in the penumbra field of brain tissue cortex of the mode, and the change on the activity of mitochondrial complexes I, II, IV and V. 6 samples were used to repeat the independent experiment for at least three times for each group of data.

In the case of “tPA: tissue-type plasminogen activator (tPA) for thrombolysis”, the Bcl-2 in the test on Bcl-2 is recorded as 0.69 ± 0.12. In the test on Bax, the Bax came out at 2.44 ± 0.51 and the Bax/Bcl-2 was found to be 4.57 ± 0.75. Further, in test [1], the “Opening number of microvessels” value is listed as 21.07 ± 1.54. For the same substance, the Infarct size in the test with cerebral infarction came out at 15.68 ± 4.81. The “Complex I activity” value with mitochondrial complex I turned out to be 1.75 ± 0.14.
